± gives the standard deviation.
Columns and labels:
[1] = test system: Toxoplasma gondii RH tachyzoites; assay: % growth inhibition vs DMSO (48 h luciferase); higher = more inhibition; conditions: 10 µM
[2] = test system: Plasmodium falciparum 3D7; assay: % inhibition of schizont-to-ring transition vs DMSO; higher = more inhibition
In short: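 Tightly synchronised P. falciparum schizonts (about 40–42 hours post-invasion, 1% parasitemia, 2.5% hematocrit, AlbuMAX-supplemented RPMI) were exposed to compound at 1, 3 or 10 µM, with vehicle and positive controls. Cells were glutaraldehyde-fixed, Triton-permeabilised, stained with Hoechst 33342 and counted by flow cytometry (at least 100,000 events). Schizont-to-ring transition inhibition is new ring formation relative to vehicle controls, averaged over three experiments.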

[3] = test system: Toxoplasma gondii RH tachyzoites; assay: plaque count per well; higher = less inhibition; extreme values may be limits of the assay; conditions: 10 µM; 8-10 days
Description: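 T. gondii RH tachyzoites expressing firefly luciferase were grown in HFF monolayers for 48 h with compound. % growth inhibition at 10 µM and EC50 (2-fold dilutions from 10 µM) were read by luminescence relative to 1% DMSO; EC50 listed as 10 (not determined, <80% inhibition) is left out. Plaque assays: 50 tachyzoites per well with 10 µM compound for 8-10 days, giving plaque count and area by crystal violet/ImageJ. Egress: median time to egress after 1 µM A23187 ionophore following 24 h of 10 µM compound (DMSO ~1.8 min; >10 = no egress within 10 min).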

[4] = test system: Plasmodium falciparum 3D7; assay: EC50 growth inhibition (60 h, SYBR Green); conditions: stage: ring-stage start
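For % growth inhibition vs DMSO (48 h luciferase) in this document: tested in triplicate wells of 96-well plates on confluent HFF monolayers, with 1% DMSO wells as negative control in four replicates.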

O=C(Nc1ccsc1C(=O)NC1CCCCC1)c1ccc(F)cc1
% growth inhibition [1]: < 0%
% inhibition of schizont-to-ring transition ([2]; 1 µM): 4.95%
% inhibition of schizont-to-ring transition ([2]; 3 µM): 8.54%
% inhibition of schizont-to-ring transition ([2]; 10 µM): 14.8%
plaque count per well [3]: 20

CCOc1cc(Br)c(C(C)NC(=O)c2cccc(OC)c2)cc1OCC (stereo not given)
% growth inhibition [1]: 34.7 ± 18%
% inhibition of schizont-to-ring transition ([2]; 1 µM): 29.1%
% inhibition of schizont-to-ring transition ([2]; 3 µM): 67.8%
% inhibition of schizont-to-ring transition ([2]; 10 µM): 78%
EC50 growth inhibition [4]: 427 nM

Cn1c(=O)n(C)c2cc(CNCCNc3ccnc4cc(Cl)ccc34)ccc21
% growth inhibition [1]: 25.7 ± 41%
% inhibition of schizont-to-ring transition ([2]; 1 µM): 38.4%
% inhibition of schizont-to-ring transition ([2]; 3 µM): 37.2%
% inhibition of schizont-to-ring transition ([2]; 10 µM): 33.7%
EC50 growth inhibition [4]: 64.8 nM

CCN(CC)S(=O)(=O)c1ccc(-c2csc(Nc3ccc(C)c(C)c3)n2)cc1
% growth inhibition [1]: 71.8 ± 4.9%
% inhibition of schizont-to-ring transition ([2]; 1 µM): 5.05%
% inhibition of schizont-to-ring transition ([2]; 3 µM): 6.93%
% inhibition of schizont-to-ring transition ([2]; 10 µM): 26.5%
plaque count per well [3]: 26

COCCn1c(C)nc2ccccc2c1=O
% growth inhibition [1]: 57.4 ± 3.5%
% inhibition of schizont-to-ring transition ([2]; 1 µM): 6.75%
% inhibition of schizont-to-ring transition ([2]; 3 µM): 13.7%
% inhibition of schizont-to-ring transition ([2]; 10 µM): 31.5%
EC50 growth inhibition [4]: 1520 nM

Cc1ccc(-c2nc3ccccc3o2)cc1NCc1cc(Cc2ccccc2)ccc1O
% growth inhibition [1]: < 0%
% inhibition of schizont-to-ring transition ([2]; 1 µM): 36.5%
% inhibition of schizont-to-ring transition ([2]; 3 µM): 47.5%
% inhibition of schizont-to-ring transition ([2]; 10 µM): 56.6%
plaque count per well [3]: 36

Cc1cc(Nc2ccc3ccccc3c2)n2ncnc2n1
% growth inhibition [1]: 24.1 ± 23%
% inhibition of schizont-to-ring transition ([2]; 1 µM): 57.1%
% inhibition of schizont-to-ring transition ([2]; 3 µM): 61.7%
% inhibition of schizont-to-ring transition ([2]; 10 µM): 61.5%
EC50 growth inhibition [4]: 53.7 nM

O=C(NCc1ccco1)C1CCN(S(=O)(=O)c2ccc(Cl)cc2)CC1
% growth inhibition [1]: 55.4 ± 6.6%
% inhibition of schizont-to-ring transition ([2]; 1 µM): 21.3%
% inhibition of schizont-to-ring transition ([2]; 3 µM): 34.6%
% inhibition of schizont-to-ring transition ([2]; 10 µM): 57.8%
EC50 growth inhibition [4]: 1030 nM

CCOc1ccc(C2N(C)c3ccccc3N2C)cc1
% growth inhibition [1]: 49.6 ± 43%
% inhibition of schizont-to-ring transition ([2]; 1 µM): 15.8%
% inhibition of schizont-to-ring transition ([2]; 3 µM): 20.8%
% inhibition of schizont-to-ring transition ([2]; 10 µM): 40.5%
EC50 growth inhibition [4]: 5840 nM

COc1ccc(C(=O)C2CC2c2ccc(Cl)cc2)cc1 (stereo not given)
% growth inhibition [1]: 22 ± 8.6%
% inhibition of schizont-to-ring transition ([2]; 1 µM): 8.22%
% inhibition of schizont-to-ring transition ([2]; 3 µM): 39.3%
% inhibition of schizont-to-ring transition ([2]; 10 µM): 58.3%
EC50 growth inhibition [4]: 2700 nM

COc1ccc(-c2nc(NC(=O)CS(=O)(=O)c3ccc(F)cc3)sc2C)cc1
% growth inhibition [1]: 69.4 ± 1.6%
% inhibition of schizont-to-ring transition ([2]; 1 µM): 9.86%
% inhibition of schizont-to-ring transition ([2]; 3 µM): 32.3%
% inhibition of schizont-to-ring transition ([2]; 10 µM): 43.6%
EC50 growth inhibition [4]: 405 nM

OC1CCCCC1C1(NC(=S)Nc2ccccc2)CCCCC1 (stereo not given)
% growth inhibition [1]: 64 ± 2.9%
% inhibition of schizont-to-ring transition ([2]; 1 µM): 23.3%
% inhibition of schizont-to-ring transition ([2]; 3 µM): 45.7%
% inhibition of schizont-to-ring transition ([2]; 10 µM): 53.4%
EC50 growth inhibition [4]: 1510 nM

Cc1ccc(N2C3c4ccccc4N(S(=O)(=O)c4ccc(C)cc4)C2c2ccccc2N3S(=O)(=O)c2ccc(C)cc2)cc1
% growth inhibition [1]: 19.1 ± 3%
% inhibition of schizont-to-ring transition ([2]; 1 µM): < 0%
% inhibition of schizont-to-ring transition ([2]; 3 µM): 5.25%
% inhibition of schizont-to-ring transition ([2]; 10 µM): 18.3%
plaque count per well [3]: 0

CC(C)CCNCC(O)Cn1c2ccccc2c2ccccc21 (stereo not given)
% growth inhibition [1]: 77.4 ± 2.5%
% inhibition of schizont-to-ring transition ([2]; 1 µM): 9.61%
% inhibition of schizont-to-ring transition ([2]; 3 µM): 49.4%
% inhibition of schizont-to-ring transition ([2]; 10 µM): 71.7%
EC50 growth inhibition [4]: 520 nM

CC1CCN(Cc2c(O)ccc3cc(-c4nc5ccccc5s4)c(=O)oc23)CC1
% growth inhibition [1]: 18.7 ± 17%
% inhibition of schizont-to-ring transition ([2]; 1 µM): 6.51%
% inhibition of schizont-to-ring transition ([2]; 3 µM): 20.3%
% inhibition of schizont-to-ring transition ([2]; 10 µM): 38.2%
plaque count per well [3]: 0

CC(=O)c1ccc(NC(=O)CSc2nc(-c3ccccc3Cl)ns2)cc1
% growth inhibition [1]: 78.8 ± 6.6%
% inhibition of schizont-to-ring transition ([2]; 1 µM): 34%
% inhibition of schizont-to-ring transition ([2]; 3 µM): 71.8%
% inhibition of schizont-to-ring transition ([2]; 10 µM): 76.5%
EC50 growth inhibition [4]: 412 nM

COc1ccc(CCN2CCC(CN(C)Cc3cnn(-c4ccccc4)c3)CC2)cc1
% growth inhibition [1]: 63.1 ± 4.5%
% inhibition of schizont-to-ring transition ([2]; 1 µM): 15.4%
% inhibition of schizont-to-ring transition ([2]; 3 µM): 48.1%
% inhibition of schizont-to-ring transition ([2]; 10 µM): 63.7%
EC50 growth inhibition [4]: 806 nM

C=CCc1c(C)nc2ccccc2c1O
% growth inhibition [1]: 72.7 ± 2.5%
% inhibition of schizont-to-ring transition ([2]; 1 µM): 27.3%
% inhibition of schizont-to-ring transition ([2]; 3 µM): 29.6%
% inhibition of schizont-to-ring transition ([2]; 10 µM): 40.5%
EC50 growth inhibition [4]: 2260 nM

CCCN(CCC)CCCNC(=O)c1cc2c(-c3ccc(OC)c(OC)c3)nn(C)c2s1
% growth inhibition [1]: 41.4 ± 13%
% inhibition of schizont-to-ring transition ([2]; 1 µM): 14.9%
% inhibition of schizont-to-ring transition ([2]; 3 µM): 37.6%
% inhibition of schizont-to-ring transition ([2]; 10 µM): 68%
EC50 growth inhibition [4]: 1120 nM

O=C1CC(O)(C(F)(F)C(F)(F)F)Oc2ccccc21 (stereo not given)
% growth inhibition [1]: 65.3 ± 2.5%
% inhibition of schizont-to-ring transition ([2]; 1 µM): 5.46%
% inhibition of schizont-to-ring transition ([2]; 3 µM): 15.3%
% inhibition of schizont-to-ring transition ([2]; 10 µM): 47.7%
EC50 growth inhibition [4]: 3000 nM

FC(F)(F)c1cccc(CNC2CCN(CCc3ccccc3)CC2)c1
% growth inhibition [1]: 45.5 ± 8.4%
% inhibition of schizont-to-ring transition ([2]; 1 µM): 23.2%
% inhibition of schizont-to-ring transition ([2]; 3 µM): 60%
% inhibition of schizont-to-ring transition ([2]; 10 µM): 69.5%
EC50 growth inhibition [4]: 201 nM

CCOc1ccc(CCNC(=O)c2cccs2)cc1OCC
% growth inhibition [1]: 72 ± 8.3%
% inhibition of schizont-to-ring transition ([2]; 1 µM): 10.1%
% inhibition of schizont-to-ring transition ([2]; 3 µM): 47%
% inhibition of schizont-to-ring transition ([2]; 10 µM): 68.3%
EC50 growth inhibition [4]: 691 nM

Oc1ccccc1CNCC12CC3CC(CC(C3)C1)C2
% growth inhibition [1]: 52.8 ± 12%
% inhibition of schizont-to-ring transition ([2]; 1 µM): 64%
% inhibition of schizont-to-ring transition ([2]; 3 µM): 64.7%
% inhibition of schizont-to-ring transition ([2]; 10 µM): 67.1%
EC50 growth inhibition [4]: 96.1 nM

COc1ccc(C(C)=O)cc1N1C(=O)C2C(C1=O)C1(c3ccccc3)C(=O)C2(c2ccccc2)C(c2ccc(C)cc2)=C1c1ccc(C)cc1 (stereo not given)
% growth inhibition [1]: 79.2 ± 1.3%
% inhibition of schizont-to-ring transition ([2]; 1 µM): 7.25%
% inhibition of schizont-to-ring transition ([2]; 3 µM): 20.5%
% inhibition of schizont-to-ring transition ([2]; 10 µM): 44.9%
EC50 growth inhibition [4]: 273 nM

Cc1[nH]c(-c2ccc(F)cc2)cc1C(=O)NC1CCN(Cc2ccccc2)CC1
% growth inhibition [1]: 44.1 ± 26%
% inhibition of schizont-to-ring transition ([2]; 1 µM): 25.3%
% inhibition of schizont-to-ring transition ([2]; 3 µM): 47%
% inhibition of schizont-to-ring transition ([2]; 10 µM): 64.1%
EC50 growth inhibition [4]: 580 nM

Cc1ccc(Nc2nc(-c3ccccn3)cs2)cc1
% growth inhibition [1]: 99.62 ± 0.17%
% inhibition of schizont-to-ring transition ([2]; 1 µM): 24.9%
% inhibition of schizont-to-ring transition ([2]; 3 µM): 40.7%
% inhibition of schizont-to-ring transition ([2]; 10 µM): 28.2%
EC50 growth inhibition [4]: 3060 nM

Cc1cc(Nc2ccc(Cl)cc2)n2nc(C(F)(F)F)nc2n1
% growth inhibition [1]: 62.7 ± 3.6%
% inhibition of schizont-to-ring transition ([2]; 1 µM): 52.9%
% inhibition of schizont-to-ring transition ([2]; 3 µM): 59.3%
% inhibition of schizont-to-ring transition ([2]; 10 µM): 58.4%
EC50 growth inhibition [4]: 56.2 nM

CCOc1c(Br)cc(C2C(C(=O)OC)=CN(C)C=C2C(=O)OC)cc1OC
% growth inhibition [1]: 70.4 ± 17%
% inhibition of schizont-to-ring transition ([2]; 1 µM): 49.6%
% inhibition of schizont-to-ring transition ([2]; 3 µM): 75.9%
% inhibition of schizont-to-ring transition ([2]; 10 µM): 79.6%
EC50 growth inhibition [4]: 480 nM

CCN(CC)CCNc1ccnc2cc3ccccc3cc12
% growth inhibition [1]: 32.4 ± 7.3%
% inhibition of schizont-to-ring transition ([2]; 1 µM): 23.6%
% inhibition of schizont-to-ring transition ([2]; 3 µM): 49%
% inhibition of schizont-to-ring transition ([2]; 10 µM): 53.2%
EC50 growth inhibition [4]: 192 nM

COC(=O)c1ccc(Cl)c2c1C1C=CCC1C(c1cccc3ccccc13)N2 (stereo not given)
% growth inhibition [1]: 55.6 ± 32%
% inhibition of schizont-to-ring transition ([2]; 1 µM): 8.04%
% inhibition of schizont-to-ring transition ([2]; 3 µM): 15%
% inhibition of schizont-to-ring transition ([2]; 10 µM): 46.6%
EC50 growth inhibition [4]: 6220 nM

Cc1cc(C)cc(Nc2cc(C)nc3nc(C(F)(F)F)nn23)c1
% growth inhibition [1]: 53.7 ± 4%
% inhibition of schizont-to-ring transition ([2]; 1 µM): 46.6%
% inhibition of schizont-to-ring transition ([2]; 3 µM): 56.5%
% inhibition of schizont-to-ring transition ([2]; 10 µM): 59.8%
EC50 growth inhibition [4]: 56.8 nM

COc1ccc(C=C2SC(=N)N(c3ccccc3OC)C2=O)cc1
% growth inhibition [1]: 58.7 ± 3.4%
% inhibition of schizont-to-ring transition ([2]; 1 µM): 19.9%
% inhibition of schizont-to-ring transition ([2]; 3 µM): 35.6%
% inhibition of schizont-to-ring transition ([2]; 10 µM): 49.7%
EC50 growth inhibition [4]: 1370 nM

CCCCOc1ccc(C(=O)Nc2cc(C)on2)cc1
% growth inhibition [1]: < 0%
% inhibition of schizont-to-ring transition ([2]; 1 µM): 4.53%
% inhibition of schizont-to-ring transition ([2]; 3 µM): 20.6%
% inhibition of schizont-to-ring transition ([2]; 10 µM): 35.9%
EC50 growth inhibition [4]: 5760 nM

COc1cccc(C=Cc2nc(=O)c3ccccc3o2)c1OC
% growth inhibition [1]: 70.48 ± 0.68%
% inhibition of schizont-to-ring transition ([2]; 1 µM): 34.9%
% inhibition of schizont-to-ring transition ([2]; 3 µM): 40.3%
% inhibition of schizont-to-ring transition ([2]; 10 µM): 49.7%
EC50 growth inhibition [4]: 317 nM
